Assay results: patent US20080027027A1, “Lactosucrose High Content Saccharide, Its Preparation and Uses” (priority 2004, published 2008)
Like-named read-outs stand apart in the source and are kept apart here.

What was measured:
[1] = crystal obtained from 90% (v/v) ethanol solution, Avigad 1957; cited from earlier work
[2] = Hygroscopicity of solid lactosucrose products under high temperature and humidity; assay type: physicochemical
Text: While, it has been known that a powdery saccharide, comprising lactosucrose with a lowered hygroscopicity and relatively high stability, can be obtained by elevating the purity of lactosucrose (see Japanese Patent Kokai No. 281,795/92).
To solve the above objects, the present inventors studied on a process for producing lactosucrose, using β-fructofuranosidase, from the viewpoints of the origin of β-fructofuranosidase and reaction condition as well as the combination with sucrose-unassimilable yeast. It has been thought that the lactosucrose content in the reaction mixture reaches maximum about 65%, on a saccharide composition basis, even in the case of using β-fructofuranosidase and invertase-deficient yeast.
According to conventional methods, lactosucrose high content fraction, obtained by the method in Example 4, was filtrated, deionized using ion-exchange resin, decolored using activated charcoal, and concentrated under a reduced pressure to give a moisture content of about 25% (w/w). The resulting concentrate was placed in a crystallizer, admixed with 1% (w/w) of seed crystal and gradually cooled to about 30° C. in 24 hours. The resulting massecuite was centrifuged and crystalline lactosucrose pentahydrate was obtained in a yield of about 40%. […]

In the case of `O.O.O.O.O.OCC1OC(OC2C(CO)OC(OC3(CO)OC(CO)C(O)C3O)C(O)C2O)C(O)C(O)C1O` (stereo not drawn) [crystalline lactosucrose pentahydrate], the hygroscopicity [1] is listed as “strong hygroscopicity”.

For `OC[C@H]1O[C@@H](O[C@H]2[C@H](O)[C@@H](O)[C@@H](O[C@]3(CO)O[C@H](CO)[C@@H](O)[C@@H]3O)O[C@@H]2CO)[C@H](O)[C@@H](O)[C@H]1O` [crystalline lactosucrose, β-D-galactosyl-(1,4)-α-D-glucosyl-(1,2)-β-D-fructoside], the hygroscopicity ([2]; 27° C. and a relative humidity of 75%) was “low hygroscopicity” and the hygroscopicity ([2]; condition of high-temperature and humidity in summer) was “no substantial hygroscopicity”.
